Measurements from US7470793B2, “Thiazol-(bi)cycloalkyl-carboxanilides” (priority 2002, dated 2008).
Read-outs that look alike come from different tables or passages of the source.

Assays:
[1] = system: Venturia inaequalis; assay: Venturia test (apple)/protective; type: in vivo; settings: apple plants, protective spray, application rate 100 g/ha, evaluation 10 days after inoculation
Description: Venturia Test (Apple)/Protective
• Solvents: 2.5 parts by weight of acetone • 24.5 parts by weight of dimethylacetamide • Emulsifier: 1.0 part by weight of alkylaryl polyglycol ether
(§1) To produce a suitable preparation of active compound, 1 part by weight of active compound is mixed with the stated amounts of solvents and emulsifier, and the concentrate is diluted with water to the desired concentration.
To test for protective activity, young plants are sprayed with the preparation of active compound at the stated application rate. After the spray coating has dried on, the plants are inoculated with an aqueous conidia suspension of the apple scab pathogen Venturia inaequalis and then remain in an incubation cabinet at about 20° C. and 100% relative atmospheric humidity for 1 day.
The plants are then placed in a greenhouse at about 21° C. and a relative atmospheric humidity of about 90%.
(§2) Evaluation is carried out 10 days after the inoculation. 0% means an efficacy which corresponds to that of the control, whereas an efficacy of 100% means that no infection is observed.

[2] = logP determination by HPLC on reversed-phase column (EEC directive 79/831 Annex V.A8); type: physicochemical; settings: reversed-phase C18 HPLC column, pH 2.3, C 18 reversed-phase, 43° C., 0.1% aqueous phosphoric acid/acetonitrile gradient
Description: The logP values given in the Preparation Examples were determined in accordance with EEC directive 79/831 Annex V.A8 by HPLC (High Performance Liquid Chromatography) on a reversed-phase column (C 18). Temperature: 43° C.
Mobile phases for the determination in the acidic range: 0.1% aqueous phosphoric acid, acetonitrile; linear gradient from 10% acetonitrile to 90% acetonitrile.
Calibration was carried out using unbranched alkan-2-ones (having 3 to 16 carbon atoms) with known logP values (determination of the logP values by the retention times using linear interpolation between two successive alkanones).

[3] = system: Puccinia recondita; assay: Puccinia test (wheat)/protective; type: in vivo; settings: wheat plants, protective spray, application rate 500 g/ha, evaluation 10 days after inoculation
Description: Puccinia Test (Wheat)/Protective
• Solvent: 25 parts by weight of N,N-dimethylacetamide • Emulsifier: 0.6 part by weight of alkylaryl polyglycol ether
(§3) To produce a suitable preparation of active compound, 1 part by weight of active compound is mixed with the stated amounts of solvent and emulsifier, and the concentrate is diluted with water to the desired concentration.
To test for protective activity, young plants are sprayed with the preparation of active compound at the stated application rate. After the spray coating has dried on, the plants are sprayed with a conidia suspension of Puccinia recondita. The plants remain in an incubation cabin at about 20° C. and 100% relative atmospheric humidity for 48 hours.
The plants are then placed in a greenhouse at a temperature of about 20° C. and a relative atmospheric humidity of 80% to promote the development of rust pustules.
as §2

[4] = system: Sphaerotheca fuliginea; assay: Sphaerotheca test (cucumber)/protective; type: in vivo; settings: Podosphaera fuliginea, 168 h, read-out: Efficacy in %
Description: Sphaerotheca Test (Cucumber)/Protective
• Solvents: 24.5 parts by weight of acetone • 24.5 parts by weight of N,N-dimethylacetamide • Emulsifier: 1 part by weight of alkylaryl polyglycol ether
as §1
To test for protective activity, young cucumber plants are sprayed with the preparation of active compound at the stated application rate. After the spray coating has dried on, the plants are inoculated with an aqueous spore suspension of Sphaerotheca fuliginea. The plants are then placed in a greenhouse at about 23° C. and a relative atmospheric humidity of about 70%.
(§4) Evaluation is carried out 7 days after the inoculation. 0% means an efficacy which corresponds to that of the control, whereas an efficacy of 100% means that no infection is observed.

[5] = system: Alternaria solani; assay: Alternaria test (tomato)/protective; type: in vivo; settings: tomato plants, protective spray, application rate 750 g/ha, evaluation 7 days after inoculation
Description: Alternaria Test (Tomato)/Protective
• Solvent: 49 parts by weight of N,N-dimethylformamide • Emulsifier: 1 part by weight of alkylaryl polyglycol ether
as §3
To test for protective activity, young tomato plants are sprayed with the preparation of active compound at the stated application rate. 1 day after the treatment, the plants are inoculated with a spore suspension of Alternaria solani. The plants then remain at 100% relative atmospheric humidity and 20° C. for 24 hours. Subsequently, the plants remain at 96% relative atmospheric humidity and a temperature of 20° C.
as §4

[6] = cucumber plants, protective spray, application rate 100 g/ha, evaluation 7 days after inoculation

Row | Compound | Efficacy in % [1] [%] | chromatographic logP [2] | Efficacy in % [3] [%] | pest or weed control at 100 g/ha [4, 6] [%] | pest or weed control at 100 g/ha [4] [%] | Efficacy in % [5] [%]
1 | Cc1nc(C(F)F)c(C(=O)Nc2ccccc2C2CCCCC2)s1 [Example 1, N-(2-cyclohexylphenyl)-4-(difluoromethyl)-2-methyl-1,3-thiazole-5-carboxamide] | 100 | 3.5 | 100 | 89 | – | –
2 | Cc1nc(C(F)F)c(C(=O)Nc2ccccc2C2CC3CCC2C3)s1 (stereo not shown) [Example 2, N-(2-bicyclo[2.2.1]hept-2-ylphenyl)-4-(difluoromethyl)-2-methyl-1,3-thiazole-5-carboxamide] | 100 | 3.63 | 100 | – | 100 | –
3 | Cc1nc(C(F)F)c(C(=O)Nc2ccc(F)cc2C2CCCC2)s1 [Example 6] | 99 | 3.24 | – | 88 | – | –
4 | Cc1nc(C(F)F)c(C(=O)Nc2ccccc2C2CCCCCCC2)s1 [Example 8] | 100 | 4.06 | 100 | 93 | – | –
5 | Cc1nc(C(F)F)c(C(=O)Nc2ccc(Br)cc2C2CC3CCC2C3)s1 (stereo not shown) [Example 14] | 100 | 4.27 | – | 100 | – | 95
6 | Cc1nc(C(F)F)c(C(=O)Nc2ccccc2C2CCC[C@@H](C)C2)s1 (stereo partly shown) [Example 18] | 100 | 3.88 | – | 100 | – | 100
7 | Cc1nc(C(F)F)c(C(=O)N(C)c2ccccc2C2CC3CCC2C3)s1 (stereo not shown) [Example 19] | – | 3.96 | – | 98 | – | –
8 | Cc1nc(C(F)F)c(C(=O)N(C)c2ccccc2C2CCCCC2)s1 [Example 20] | – | 3.85 | – | 100 | – | –
9 | CC(=O)N(C(=O)c1sc(C)nc1C(F)F)c1ccccc1C1CC2CCC1C2 (stereo not shown) [Example 21] | 96 | 3.95 | – | 98 | – | 100
10 | CC(=O)N(C(=O)c1sc(C)nc1C(F)F)c1ccccc1C1CCCCC1 [Example 22] | – | 3.86 | 93 | 96 | – | –
